We go through two compounds from patent US20120309790A1, “TREATMENT OF DERM[…] CONDITIONS” (SANOFI, priority 2010, published 2012).

The assay has as its system Ascaris suum antigen-induced wheal. The assay is described as follows: Ascaris suum antigen-induced intradermal wheal formation in nonhuman primates. The conditions noted are these: for Mean wheal area: mean of 12 animals, 15 minutes, A suum alone 119.626; for Individual calculated wheal area: single animals, intradermal, 15 minutes after injection. The class given is in vivo, Macaca fascicularis. From the text: The species used for this study were male, nonhuman primates, Macaca fascicularis 5 to 10 years of age. Each animal was identified by a unique number tattoo located on its chest. The group size was 12. Animals were supplied by Charles River and housed under conditions outlined in the NIH Guide for Care and Use of Laboratory Animals in compliance with the USDA Laboratory Animal Welfare Act, in a fully accredited AAALAC facility. Purina (product 5038) primate chow was fed twice daily, supplemented with fruit, vegetables and treats. Water was available ad libitum.
Compound A formulated in a solution containing 0.22 mg/ml A sum (Ascaris sum) in phosphate buffered saline was dosed at 0.004, 0.0004, 0.00004, and 0.000004 mg per injection site at a volume of 40 μl.
Diphenhydramine hydrochloride was formulated in a solution containing 0.22 mg/ml A suum in phosphate buffered saline. Diphenhydramine hydrochloride was dosed at 0.4 mg per injection site at a volume of 40 μl.
Ascaris suum extract (part number XPB33X1A5, lot 30575) was supplied by Greer Laboratories. The extract was reconstituted with distilled water to a final concentration of 10 mg/ml of stock solution.
Animals were anesthetized by an intramuscular (IM) injection of 5 to 10 mg/kg ketamine mixed with 0.5 to 0.75 mg/kg medetomidine. The animal's chest and abdomen were shaved and wiped clean with alcohol. The following injections (40 μl each) were given intradermally: • PBS (phosphate buffered saline) • Ascaris 8.8×10^−3 mg/ml • Ascaris 8.8×10^−3 mg/ml+0.4 mg Diphenhydramine hydrochloride • Ascaris 8.8×10^−3 mg/ml+0.004 mg SAR160719 • Ascaris 8.8×10^−3 mg/ml+0.0004 mg SAR160719 • Ascaris 8.8×10^−3 mg/ml+0.00004 mg SAR160719 • Ascaris 8.8×10^−3 mg/ml+0.000004 mg SAR160719
The reactions in the form of a wheal were measured 15 minutes after injection using vernier calipers. The wheal was measured along two diameters (D1 and D2) perpendicular to one another. The area of the wheal was calculated using the formula: […]
Mixed model with repeated measures was used to analyze the data, with wheal size for different treatment groups as the repeated measures, treatment as fixed effects, and animal as random effect. The correlation structure was selected to be compound symmetry. Robust covariance estimate was used to obtain the results.

Values joined by “and” are separate entries in the source; they are usually repeats but may differ in a detail not shown here. Equal values may be shown once. Where a name gives a salt, the structure may show the parent alone.

Take `COCCn1cc(C(=O)N2CCC(c3cc(CN)ccc3F)CC2)c2c(OC(F)(F)F)ccc(F)c21` [Compound A, [4-(5-Aminomethyl-2-fluorophenyl)piperidine-1-yl][7-fluoro-1-(2-methoxyethyl)-4-trifluoromethoxy-1H-indol-3-yl]methanone]: for the setting “co-injected with A suum intradermally, measured 15 minutes after injection”, the Antigen-induced wheal formation result is listed as “reduced antigen-induced wheal formation”. The Mean wheal area was 105.510 mm^2 (A suum + 0.000004 mg per site); 101.157 mm^2 (A suum + 0.00004 mg per site); 97.680±8.012 mm^2 and 97.680 mm^2 (A suum + 0.0004 mg per site); 102.390±9.645 mm^2 and 102.390 mm^2 (A suum + 0.004 mg per site). In addition, the “Individual calculated wheal area” value by setting is: (A suum 8.8 × 10^−3 mg + 0.000004 mg per injection site) 110.302 mm^2 and 84.145 mm^2 and 132.750 mm^2 and 121.754 mm^2 and 86.601 mm^2 and 104.788 mm^2 and 134.800 mm^2 and 133.773 mm^2 and 85.779 mm^2 and 66.485 mm^2 and 115.005 mm^2 and 89.932 mm^2; (A suum 8.8 × 10^−3 mg + 0.00004 mg per injection site) 67.209 mm^2 and 86.601 mm^2 and 168.586 mm^2 and 90.774 mm^2 (2×) and 106.610 mm^2 (2×) and 81.723 mm^2 and 107.527 mm^2 and 93.325 mm^2 and 79.337 mm^2 and 134.800 mm^2; (A suum 8.8 × 10^−3 mg + 0.0004 mg per injection site) 112.171 mm^2 and 110.302 mm^2 and 158.388 mm^2 and 101.190 mm^2 and 103.882 mm^2 and 107.527 mm^2 and 87.428 mm^2 and 90.774 mm^2 and 100.300 mm^2 and 48.404 mm^2 and 56.752 mm^2 and 95.046 mm^2; (A suum 8.8 × 10^−3 mg + 0.004 mg per injection site) 67.938 mm^2 and 115.005 mm^2 and 159.506 mm^2 and 91.621 mm^2 and 84.960 mm^2 (2×) and 131.730 mm^2 and 88.259 mm^2 and 164.014 mm^2 and 99.415 mm^2 and 65.047 mm^2 and 76.211 mm^2.

Regarding `CN(C)CCOC(c1ccccc1)c1ccccc1` [Diphenhydramine hydrochloride, reference compound], under “A suum + 0.4 mg per site, hydrochloride”, the Mean wheal area is 84.196±7.364 mm^2 and 84.196 mm^2. Also, the “Individual calculated wheal area” value (A suum 8.8 × 10^−3 mg + 0.4 mg per injection site, hydrochloride) was 76.211 mm^2 and 116.914 mm^2 and 147.430 mm^2 and 62.219 mm^2 and 73.148 mm^2 and 82.527 mm^2 and 58.773 mm^2 and 67.209 mm^2 and 78.550 mm^2 and 65.764 mm^2 and 87.428 mm^2 and 94.183 mm^2.
